Target: EGFR L858R/T790M/C797S mutant enzyme (Homo sapiens (Human), UniProt P00533, C797S/L858R/T790M)
Test: EGFR mutant enzyme inhibition, HTRF system (Cisbio)
Type: biochemical
Details: ATP 1 mM, 37° C. for 2 hours
Method: In order to evaluate the inhibitory activity of the compound represented by formula 1 according to the present invention against EGFR mutation, the following experiment was performed.
The activity of the compound of the present invention against EGFR mutant enzyme was measured using the HTRF system of Cisbio Co. As an EGFR L858R/T790M/C797S mutant enzyme, a protein provided by SignalChem was purchased and used as an enzyme source.
The composition of the assay buffer used for the activity measurement was as follows: 50 mM Tris-HCl (pH 7.5), 100 mM NaCl, 7.5 mM MgCl2, 3 mM KCl, 0.01% Tween 20, 0.1% BSA, and 1 mM DTT. Herein, an enzyme reaction was performed using a peptide substrate labeled with ATP at the concentration of 1 mM and biotin at the concentration of 0.5 μM. The analysis of the EGFR activity inhibitory effect of the compound was performed according to the following analytical reaction recipe.
Component 1: 4 μl of EGFR mutant enzyme
Component 2: 2 μl of compound solution
Component 3: 4 μl of ATP and biotin-labeled peptide mixture
The enzyme reaction was initiated by mixing the component 1 and the component 2 first and then adding the component 3 thereto. After reacting the mixture at 37° C. for 2 hours, 10 μl of a measurement solution consisting of streptavidin-XL665 and europium-labeled anti-phosphotyrosine antibody provided by Cisbio was added to the enzyme reaction solution, followed by reaction at room temperature for 1 hour. Finally, the ratio of the fluorescence values at 615 nm and 665 nm was calculated using Envision equipment of Perkin-Elmer to quantitatively measure the enzyme activity and confirm the inhibitory ability of the compound. The values measured at 7 concentrations of the compound were analyzed using Prism program (version 5.01, Graphpad Software, Inc.), and the IC50 value, an index of the inhibitory ability of the compound, was calculated.

Chain of EGFR L858R/T790M/C797S mutant enzyme (P00533 25-1210 T790M/C797S/L858R): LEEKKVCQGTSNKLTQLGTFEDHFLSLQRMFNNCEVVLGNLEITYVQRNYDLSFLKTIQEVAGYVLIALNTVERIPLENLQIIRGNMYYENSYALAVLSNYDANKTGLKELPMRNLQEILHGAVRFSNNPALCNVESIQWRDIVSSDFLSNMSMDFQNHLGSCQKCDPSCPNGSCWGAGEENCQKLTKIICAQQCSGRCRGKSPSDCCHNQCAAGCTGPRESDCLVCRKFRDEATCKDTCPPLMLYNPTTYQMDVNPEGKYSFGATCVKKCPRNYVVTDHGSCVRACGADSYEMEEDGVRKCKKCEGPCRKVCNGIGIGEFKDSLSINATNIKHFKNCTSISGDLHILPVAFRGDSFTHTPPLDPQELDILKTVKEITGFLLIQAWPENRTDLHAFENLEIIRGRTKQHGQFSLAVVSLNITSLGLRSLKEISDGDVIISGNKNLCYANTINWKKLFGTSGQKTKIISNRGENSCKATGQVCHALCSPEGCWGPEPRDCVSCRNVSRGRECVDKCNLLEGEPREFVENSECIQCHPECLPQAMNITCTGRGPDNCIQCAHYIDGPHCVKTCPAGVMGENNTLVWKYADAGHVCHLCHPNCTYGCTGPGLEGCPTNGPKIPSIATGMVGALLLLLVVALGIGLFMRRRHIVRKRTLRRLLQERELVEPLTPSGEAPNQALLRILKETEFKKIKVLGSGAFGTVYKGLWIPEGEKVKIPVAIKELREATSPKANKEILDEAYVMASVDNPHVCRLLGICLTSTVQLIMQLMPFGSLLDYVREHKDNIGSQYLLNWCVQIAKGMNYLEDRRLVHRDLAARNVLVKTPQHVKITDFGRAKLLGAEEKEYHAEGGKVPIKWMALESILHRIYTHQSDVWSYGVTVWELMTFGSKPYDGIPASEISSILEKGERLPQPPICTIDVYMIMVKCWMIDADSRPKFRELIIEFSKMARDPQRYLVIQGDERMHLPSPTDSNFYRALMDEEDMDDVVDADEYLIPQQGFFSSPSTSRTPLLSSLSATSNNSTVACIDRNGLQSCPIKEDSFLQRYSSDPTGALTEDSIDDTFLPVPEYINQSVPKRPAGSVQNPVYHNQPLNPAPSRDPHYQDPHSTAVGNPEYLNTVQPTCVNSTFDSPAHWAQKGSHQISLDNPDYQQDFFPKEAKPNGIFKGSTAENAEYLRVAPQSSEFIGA

SMILES | IC50
O=C1c2ccccc2CN1C(c1nc2ccccc2[nH]1)c1ccccc1O (centres unmarked) [Example 1, 2-((1H-benzo[d]imidazole-2-yl)(2-hydroxyphenyl)methyl)isoindolin-1-one] | 1000 nM
O=C1c2ccccc2CN1C(c1nc2ccc(F)cc2[nH]1)c1ccccc1O (centres unmarked) [Example 2, 2-((6-fluoro-1H-benzo[d]imidazole-2-yl)(2-hydroxyphenyl)methyl)isoindolin-1-one] | 2200 nM
O=C1c2ccccc2CN1C(c1nc2cccnc2[nH]1)c1ccccc1O (centres unmarked) [Example 3, 2-((2-hydroxyphenyl)(3H-imidazo[4,5-b]pyridine-2-yl)methyl)isoindolin-1-one] | 2300 nM
O=C1c2ccccc2CN1C(c1nc2ccc(Cl)cc2[nH]1)c1ccccc1O (centres unmarked) [Example 4, 2-((6-chloro-1H-benzo[d]imidazole-2-yl)(2-hydroxyphenyl)methyl)isoindolin-1-one] | 4400 nM
O=C1c2ccccc2CN1C(c1nc2cc(Cl)c(Cl)cc2[nH]1)c1ccccc1O (centres unmarked) [Example 5, 2-((5,6-dichloro-1H-benzo[d]imidazole-2-yl)(2-hydroxyphenyl)methyl)isoindolin-1-one] | 7000 nM
O=C1c2ccccc2CN1C(c1nc2ccc(Cl)nc2[nH]1)c1ccccc1O (centres unmarked) [Example 6, 2-((5-chloro-3H-imidazo[4,5-b]pyridine-2-yl)(2-hydroxyphenyl)methyl)isoindolin-1-one] | > 10000 nM
O=C1c2ccccc2CN1C(c1nc2ccccc2[nH]1)c1cc(F)ccc1O (centres unmarked) [Example 7, 2-((1H-benzo[d]imidazole-2-yl)(5-fluoro-2-hydroxyphenyl)methyl)isoindolin-1-one] | 700 nM
O=C1c2ccccc2CN1C(c1nc2ccccc2[nH]1)c1cc(Cl)ccc1O (centres unmarked) [Example 8, 2-((1H-benzo[d]imidazole-2-yl)(5-chloro-2-hydroxyphenyl)methyl)isoindolin-1-one] | 170 nM
O=C1c2cc(-c3ccc(N4CCNCC4)cc3)ccc2CN1C(c1nc2ccccc2[nH]1)c1cc(F)ccc1O (centres unmarked) [Example 10, 2-((1H-benzo[d]imidazole-2-yl)(5-fluoro-2-hydroxyphenyl)methyl)-6-(4-(piperazine-1-yl)phenyl)isoindolin-1-one] | 99 nM
O=C1c2cc(-c3ccc(N4CCNCC4)cc3)ccc2CN1C(c1nc2ccccc2[nH]1)c1cc(Cl)ccc1O (centres unmarked) [Example 11, 2-((1H-benzo[d]imidazole-2-yl)(5-chloro-2-hydroxyphenyl)methyl)-6-(4-(piperazine-1-yl)phenyl)isoindolin-1-one] | 150 nM
Nc1ccc(-c2ccc3c(c2)C(=O)N(C(c2nc4ccccc4[nH]2)c2ccccc2O)C3)cc1 (centres unmarked) [Example 12, 2-((1H-benzo[d]imidazole-2-yl)(2-hydroxyphenyl)methyl)-6-(4-aminophenyl)isoindolin-1-one] | 500 nM
Nc1ccc(-c2ccc3c(c2)C(=O)N(C(c2nc4ccccc4[nH]2)c2cc(Cl)ccc2O)C3)cc1 (centres unmarked) [Example 14, 2-((1H-benzo[d]imidazole-2-yl)(5-chloro-2-hydroxyphenyl)methyl)-6-(4-aminophenyl)isoindolin-1-one] | 1300 nM
O=C1c2cc(C3=CCNCC3)ccc2CN1C(c1nc2ccccc2[nH]1)c1ccccc1O (centres unmarked) [Example 15, 2-((1H-benzo[d]imidazole-2-yl)(2-hydroxyphenyl)methyl)-6-(1,2,3,6-tetrahydropyridine-4-yl)isoindolin-1-one] | 8800 nM
O=C1c2cc(C3=CCNCC3)ccc2CN1C(c1nc2ccccc2[nH]1)c1cc(F)ccc1O (centres unmarked) [Example 16] | 2900 nM
O=C1c2cc(C3=CCNCC3)ccc2CN1C(c1nc2ccccc2[nH]1)c1cc(Cl)ccc1O (centres unmarked) [Example 17] | 1100 nM
CN1CCN(c2ccc(-c3ccc4c(c3)C(=O)N(C(c3nc5ccccc5[nH]3)c3cc(F)ccc3O)C4)cc2)CC1 (centres unmarked) [Example 18, 2-((1H-benzo[d]imidazole-2-yl)(5-fluoro-2-hydroxyphenyl)methyl)-6-(4-(4-methylpiperazine-1-yl)phenyl)isoindolin-1-one] | 130 nM
O=C1c2ccccc2CN1[C@@H](c1cc2ccccc2[nH]1)c1ccccc1O [Example 19, (R)-2-((2-hydroxyphenyl)(1H-indole-2-yl)methyl)isoindolin-1-one] | > 10000 nM
Cc1ccc(O)c([C@H](c2cc3ccccc3[nH]2)N2Cc3ccccc3C2=O)c1 [Example 20, (R)-2-((2-hydroxy-5-methylphenyl)(1H-indole-2-yl)methyl)isoindolin-1-one] | 1600 nM
O=C1c2ccccc2CN1[C@@H](c1cc2ccccc2[nH]1)c1c(O)ccc(F)c1F [Example 21, (R)-2-((2,3-difluoro-6-hydroxyphenyl)(1H-indole-2-yl)methyl)isoindolin-1-one] | > 10000 nM
O=C1c2ccccc2CN1[C@@H](c1cc2ccccc2[nH]1)c1cc(F)c(F)cc1O [Example 22, (R)-2-((4,5-difluoro-2-hydroxyphenyl)(1H-indole-2-yl)methyl)isoindolin-1-one] | > 10000 nM
O=C1c2ccccc2CN1[C@@H](c1cc2ccccc2[nH]1)c1cc(F)ccc1O [Example 23, (R)-2-((5-fluoro-2-hydroxyphenyl)(1H-indole-2-yl)methyl)isoindolin-1-one] | 2400 nM
O=C1c2ccccc2CN1[C@H](c1cc2ccccc2[nH]1)c1cc(F)ccc1O [Example 24, (S)-2-((5-fluoro-2-hydroxyphenyl)(1H-indole-2-yl)methyl)isoindolin-1-one] | 3300 nM
O=C1c2ccccc2CN1[C@@H](c1cc2ccccc2[nH]1)c1c(O)cccc1F [Example 25, (R)-2-((2-fluoro-6-hydroxyphenyl)(1H-indole-2-yl)methyl)isoindolin-1-one] | > 10000 nM
O=C1c2ccccc2CN1[C@@H](c1cc2ccccc2[nH]1)c1cc(Cl)ccc1O [Example 26, (R)-2-((5-chloro-2-hydroxyphenyl)(1H-indole-2-yl)methyl)isoindolin-1-one] | 190 nM
O=C1c2ccccc2CN1[C@H](c1cc2cccnc2[nH]1)c1cc(F)ccc1O [Example 27, (S)-2-((5-fluoro-2-hydroxyphenyl)(1H-pyrrolo[2,3-b]pyridine-2-yl)methyl)isoindolin-1-one] | 280 nM
Nc1ccc(-c2ccc3c(c2)C(=O)N([C@@H](c2cc4ccccc4[nH]2)c2ccccc2O)C3)cc1 [Example 28, (R)-6-(4-aminophenyl)-2-((2-hydroxyphenyl)(1H-indole-2-yl)methyl)isoindolin-1-one] | 160 nM
Nc1ccc(-c2ccc3c(c2)C(=O)N([C@@H](c2cc4ccccc4[nH]2)c2cc(F)ccc2O)C3)cc1 [Example 29, (R)-6-(4-aminophenyl)-2-((5-fluoro-2-hydroxyphenyl)(1H-indole-2-yl)methyl)isoindolin-1-one] | 280 nM
Nc1ccc(-c2ccc3c(c2)C(=O)N([C@@H](c2cc4ccccc4[nH]2)c2cc(Cl)ccc2O)C3)cc1 [Example 30, (R)-6-(4-aminophenyl)-2-((5-chloro-2-hydroxyphenyl)(1H-indole-2-yl)methyl)isoindolin-1-one] | 120 nM
O=C1c2cc(-c3ccc(N4CCNCC4)cc3)ccc2CN1[C@@H](c1cc2ccccc2[nH]1)c1ccccc1O [Example 31, (R)-2-((2-hydroxyphenyl)(1H-indole-2-yl)methyl)-6-(4-(piperazine-1-yl)phenyl)isoindolin-1-one] | 18 nM

Reference: patent US11976059B2 (KOREA RESEARCH INSTITUTE OF CHEMICAL TECHNOLOGY, priority 2018, dated 2024)
